We go through 13 molecules from ChEMBL document CHEMBL1201862, “PubChem BioAssay data set” (2004).

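Five concentrations, 48 hours, 96-well plates. At the GI50, growth is halved.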 Active and inactive are the calls of the source. No stated cut-off is given here; in the data, active = GI50 up to about 1.1 µM and inactive = higher.

Test systems include DU-145; HCT-15; HL-60; HOP-62; K562; MCF7; Malme-3M; NCI-H23; NCI-H460; NCI-H522; RPMI-8226; SF-268; SF-295; SK-MEL-2; SNB-19; UACC-62; OVCAR-8; T47D.
Holding throughout (assay): NCI tumour cell line growth inhibition, 48 h

Regarding `CCOC(=O)Nc1sc2c(c1C#N)CCCC2`, the GI50 in the test with DU-145 was > 100 µM (inactive); in the test on HCT-15 it was 79.4 µM; in the test with HL-60, 45.3 µM (inactive); in the test on HOP-62, > 100 µM (inactive); in the test with K562, 33.1 µM (inactive); in the test with MCF7, > 100 µM (inactive). The GI50 with Malme-3M is > 100 µM (inactive); in the test on NCI-H23, > 100 µM (inactive); in the test with NCI-H460, > 100 µM (inactive); in the test on NCI-H522 it was 64 µM (inactive); with RPMI-8226, 33 µM (inactive); in the test on SF-268, > 100 µM (inactive). For the same molecule, the GI50 with SF-295 was > 100 µM (inactive); in the test on SK-MEL-2, > 100 µM (inactive); in the test with SNB-19, 89.5 µM (inactive); in the test with UACC-62, 67.1 µM (inactive).
Take `CCCCCCCCCCCCOCC(COP(=O)(O)OCCN=[N+]=[N-])OC(=O)CCCCCCCCCCC` (configuration not stated): the GI50 is > 100 µM (inactive) with DU-145; > 100 µM in the test on HCT-15; > 100 µM (inactive) in the test on HOP-62; > 100 µM (inactive) in the test on K562; > 100 µM (inactive) in the test on MCF7; > 100 µM (inactive) with Malme-3M. Besides, the GI50 in the test with NCI-H23, with NCI-H460, with NCI-H522, in the test with OVCAR-8, in the test with RPMI-8226 and with SF-268 was > 100 µM (inactive) in each case. Moreover, the GI50 in the test with SF-295, in the test with SK-MEL-2, with SNB-19, in the test on T47D and in the test with UACC-62 was > 100 µM (inactive) in each case.
`Cc1cc2[nH]c3c(C#N)c(-c4ccccc4)c(/N=N/c4ccc(F)cc4)c(=O)n3c2cc1C`: the GI50 in the test with HCT-15 is 36.6 µM; in the test with HOP-62, > 100 µM (inactive); in the test with MCF7, > 100 µM (inactive); in the test on NCI-H23, > 100 µM (inactive); with NCI-H460, 83.9 µM (inactive); with NCI-H522, 18.5 µM (inactive). The GI50 in the test on RPMI-8226 is > 100 µM (inactive); in the test on SF-268, 35.9 µM (inactive); in the test on SF-295 it was > 100 µM (inactive); in the test on SK-MEL-2, > 100 µM (inactive); in the test with SNB-19, > 100 µM (inactive); in the test with T47D, 4.22 µM (inactive).
Regarding `CCCCNC(=O)C1=C(C)NC(C)=C(C(=O)NCCCC)C1`, the GI50 is > 100 µM (inactive) in the test with DU-145; > 100 µM with HCT-15; 71.1 µM (inactive) in the test on HL-60; > 100 µM (inactive) with HOP-62; > 100 µM (inactive) in the test on MCF7; > 100 µM (inactive) in the test with NCI-H23. Further, the GI50 in the test on NCI-H460, in the test with OVCAR-8, in the test on SF-268, in the test on SF-295, in the test on SK-MEL-2 and with SNB-19 was > 100 µM (inactive) in each case. For the same molecule, the GI50 with T47D and with UACC-62 was > 100 µM (inactive) in each case.
On to `COc1ccc2c(c1)CC1(O)COc3cc(OC)ccc3C1O2` (configuration not stated), for which the GI50 in the test on DU-145 is > 100 µM (inactive); in the test with HCT-15, 96.2 µM; with HOP-62 it was > 100 µM (inactive); in the test with MCF7 it was > 100 µM (inactive); in the test with Malme-3M, > 100 µM (inactive); with NCI-H23, > 100 µM (inactive). Also, the GI50 in the test on NCI-H522 is > 100 µM (inactive); in the test with OVCAR-8, > 100 µM (inactive); in the test on RPMI-8226, 59 µM (inactive); in the test on SF-268 it was > 100 µM (inactive); in the test with SF-295 it was > 100 µM (inactive); in the test on SK-MEL-2 it was > 100 µM (inactive). Further, the GI50 was 85.7 µM (inactive) with T47D and > 100 µM (inactive) with UACC-62.
For `C=CCC1C(O[Si](C)(C)C(C)(C)C)C(CO[Si](C)(C)C(C)(C)C)OC1n1ccc(=O)[nH]c1=O` (configuration not stated), the GI50 with DU-145 was 1.52 µM (inactive); with HCT-15 it was 1.15 µM; with HOP-62, 1.98 µM (inactive); with K562, 1.22 µM (inactive); with MCF7, 1.15 µM (inactive); in the test on NCI-H23, 1.29 µM (inactive). Further, the GI50 in the test with NCI-H460 was 1.16 µM (inactive); in the test on OVCAR-8, 1.7 µM (inactive); with RPMI-8226, 1.4 µM (inactive); with SF-295, 1.78 µM (inactive); with SK-MEL-2, 2.14 µM (inactive); in the test with SNB-19, 1.61 µM (inactive). Further, the GI50 is 1.3 µM (inactive) in the test with T47D and 1.73 µM (inactive) in the test on UACC-62.
Consider `O=C1CN(c2ccccc2)C(=O)CN1CCN1CC(=O)N(c2ccccc2)CC1=O`, for which the GI50 was > 100 µM (inactive) in the test on DU-145; > 100 µM with HCT-15; > 100 µM (inactive) in the test on HL-60; > 100 µM (inactive) in the test on HOP-62; > 100 µM (inactive) in the test on MCF7; > 100 µM (inactive) with Malme-3M. Moreover, the GI50 in the test with NCI-H23, in the test with NCI-H460, in the test with NCI-H522, with OVCAR-8, in the test on RPMI-8226 and with SF-268 was > 100 µM (inactive) in each case. The GI50 with SF-295, in the test with SNB-19 and in the test with UACC-62 was > 100 µM (inactive) each time.
Turning to `OCC1OC(c2ccccc2)CC1O` (configuration not stated), the GI50 in the test with DU-145 was > 100 µM (inactive); with HCT-15, > 100 µM; in the test with HL-60 it was > 100 µM (inactive); with K562, > 100 µM (inactive); in the test with MCF7, > 100 µM (inactive); in the test on NCI-H460, > 100 µM (inactive). Also, the GI50 in the test with OVCAR-8, in the test with SF-295, in the test on SK-MEL-2, in the test on SNB-19 and in the test on UACC-62 was > 100 µM (inactive) throughout.
With `COCOC1C=CCCCC2=CC(C)=C(CC1)O2` (configuration not stated), the GI50 in the test on DU-145 is > 100 µM (inactive); with HCT-15, > 100 µM; in the test on HOP-62 it was > 100 µM (inactive); in the test with K562 it was > 100 µM (inactive); with MCF7, > 100 µM (inactive); in the test on Malme-3M, > 100 µM (inactive). In addition, the GI50 with NCI-H23, in the test on NCI-H460, with NCI-H522, in the test with OVCAR-8, in the test with RPMI-8226 and in the test on SF-268 was > 100 µM (inactive) in each case. Also, the GI50 with SF-295, in the test on SNB-19 and with UACC-62 was > 100 µM (inactive) throughout.
In the case of `Cc1cc(Cl)ccc1/N=N/C(=O)NNc1ccc(Cl)cc1C`, the GI50 is 10.7 µM (inactive) in the test on DU-145; 12.2 µM in the test with HCT-15; 20.3 µM (inactive) in the test on HL-60; 11.5 µM (inactive) with HOP-62; 22 µM (inactive) with K562; 21 µM (inactive) with Malme-3M. For the same molecule, the GI50 with NCI-H23 is 15.5 µM (inactive); in the test with NCI-H460 it was 14.4 µM (inactive); with NCI-H522 it was 20.3 µM (inactive); in the test with OVCAR-8 it was 13 µM (inactive); with RPMI-8226 it was 22.2 µM (inactive); in the test with SF-268, 16.4 µM (inactive). Besides, the GI50 was 14.1 µM (inactive) in the test with SK-MEL-2, 17.6 µM (inactive) with SNB-19, 5.87 µM (inactive) with T47D and 9.04 µM (inactive) in the test on UACC-62.
For `Fc1cccc(Cl)c1C1SCc2nc3cc4ccccc4cc3n21` (configuration not stated), the GI50 is > 100 µM (inactive) with DU-145; > 100 µM with HCT-15; 35 µM (inactive) in the test on HOP-62; > 100 µM (inactive) in the test on K562; > 100 µM (inactive) in the test with MCF7; 43.4 µM (inactive) in the test with Malme-3M. Moreover, the GI50 in the test with NCI-H23 is > 100 µM (inactive); in the test with OVCAR-8, 39.4 µM (inactive); in the test on RPMI-8226, > 100 µM (inactive); in the test with SF-268 it was > 100 µM (inactive); in the test on SF-295, 62.7 µM (inactive); in the test on SK-MEL-2 it was > 100 µM (inactive). In addition, the GI50 in the test with SNB-19 was 52.7 µM (inactive); in the test on T47D, > 100 µM (inactive); with UACC-62, 43.6 µM (inactive).
For `O=C1N[C@H](C(=O)O)[C@@H](c2ccc(OCc3ccccc3)cc2)O1`, the GI50 is 35.5 µM (inactive) in the test with DU-145; 41.8 µM in the test with HCT-15; 13.6 µM (inactive) in the test on HOP-62; > 100 µM (inactive) with K562; 37.1 µM (inactive) in the test with MCF7; > 100 µM (inactive) in the test on Malme-3M. In addition, the GI50 with NCI-H23 was 40.4 µM (inactive); with NCI-H522, 37.3 µM (inactive); in the test with OVCAR-8 it was 20.7 µM (inactive); with RPMI-8226 it was 11.6 µM (inactive); in the test on SF-268, 25.4 µM (inactive); with SF-295, 26.1 µM (inactive). Further, the GI50 in the test on SK-MEL-2 was 26.2 µM (inactive); in the test on SNB-19 it was 17.7 µM (inactive); in the test with T47D, 26.3 µM (inactive); with UACC-62, 67.5 µM (inactive).
`COc1cccc(C2c3cc4c(cc3OC(N3CCCCC3)C2C)OCO4)c1OC` (configuration not stated): the GI50 is 3.64 µM (inactive) in the test on DU-145; 3.37 µM with HCT-15; 17.9 µM (inactive) in the test on HOP-62; 3.63 µM (inactive) in the test on K562; 5.71 µM (inactive) with MCF7; 11.9 µM (inactive) in the test on Malme-3M. The GI50 was 14.3 µM (inactive) in the test with NCI-H23; 4.46 µM (inactive) in the test with NCI-H460; 5.21 µM (inactive) with NCI-H522; > 100 µM (inactive) in the test on OVCAR-8; 3.44 µM (inactive) in the test with RPMI-8226; 8.2 µM (inactive) in the test with SF-268. The GI50 in the test on SF-295 was 4.27 µM (inactive); with SK-MEL-2, 5.96 µM (inactive); in the test on SNB-19, 14.8 µM (inactive); in the test with T47D, 4.1 µM (inactive); in the test with UACC-62, 12.9 µM (inactive).
